Measurements as given in patent publication US8352031B2, “Protein activity modification” (Impulse Dynamics NV, priority 2004, dated 2013).
“And” between values parts separate entries of the source, which are not always exact repeats. Equal values may be shown once.

Assays:
[1] = test system: phospholamban serine-16; assay: Phosphorylation of PLB at serine-16 in failed LV tissue homogenate with/without PK inhibitor and CCM signal (Western blot); type: biochemical, dog; conditions: for P-PLB serine-16: single samples
Experimental: (§1) The tissue homogenate was prepared in the following manner. […] The homogenate was then filtered through 4 layers of cheese cloth. The resulting homogenate was stored in ice and its protein concentration was determined by the Lowry method.
(§2) The CCM signals were delivered to the homogenate as follows. The homogenate was diluted 2 fold in homogenate buffer and subsequently aliquotted 3 ml each in assay tubes. Assay tubes were divided into 2 sets (Set A and Set B), each subset consisting of […]. CCM signals were delivered for 10″, 30″, 1′, 5′, 30′, and 60′ in one of the sets, while the other set served as time control. The reaction was stopped by adding concentrated SDS. Protein assay on all the samples were performed by Lowry method.
(§3) Additional experiments of tissue homogenate were carried out in the presence and absence of protein kinese inhibitors. The homogenate was the same as above, from dogs with heart failure. […] CAS 62996-74-1.

[2] = test system: phospholamban threonin-17; assay: Phosphorylation of PLB at threonine-17 in failed LV tissue homogenate with/without PK inhibitor and CCM signal (Western blot); type: biochemical, dog; conditions: for P-PLB threonin-17: single samples; for P-PLB threonin-17, Av: average
Experimental: as §1, §2, §3
The following tables summarize the experimental results for theronin-17: […]

[3] = test system: platelet aggregation; conditions: advertised; cited from earlier work
[4] = test system: human malignant glioma cell lines; conditions: advertised; cited from earlier work
[5] = test system: normal cells; conditions: advertised; cited from earlier work
[6] = test system: dogs with intracoronary microembolization-induced chronic HF; assay: 3 months therapy with beta-blocker alone, beta-blocker + CCM or no therapy: LV EDV, ESV, EF; type: in vivo, dog
Experimental: In a set of experiments, dogs with intracoronary microembolization-induced chronic HF (LV EF 30%-40%) were randomized to 3 months therapy with either BB (beta-blockers) alone (extended release metoprolol succinate, 100 mg once daily), extended release metoprolol succinate (100 mg, once daily) combined with CCM therapy, or to no therapy at all (Control). LV end-diastolic volume (EDV), end-systolic volume (ESV) and EF were measured before randomization (PRE) and after 3 months of therapy (POST). To determine “treatment effect”, the change A between PRE and POST therapy for each group was compared among the 3 study groups.

[7] = Control + PK Inhibitor, no CCM, 10 sec
[8] = Control + PK Inhibitor, no CCM, 20 sec
[9] = Control + PK Inhibitor, no CCM, 30 sec
[10] = PK Inhibitor + CCM delivered for 60 sec

Compound: CN[C@@H]1C[C@H]2O[C@@](C)([C@@H]1OC)n1c3ccccc3c3c4c(c5c6ccccc6n2c5c31)C(=O)NC4 [STAUROSPORIN]
- P-PLB serine-16 [1, 7]: 8.0 and 9.0
- P-PLB serine-16 [1, 8]: 12.2 and 14.0
- P-PLB serine-16, Av ([1]; Control + PK Inhibitor, no CCM, 30 sec, average): 9.4
- P-PLB serine-16 [1, 9]: 6.8 and 9.7
- response of serine-16 phosphorylation to CCM in presence of kinese inhibitor ([1]; HF dog tissue homogenate): responded close to usual
- P-PLB serine-16 ([1]; PK Inhibitor + CCM delivered for 30 sec): 14.3 and 13.0
- P-PLB serine-16 [1, 10]: 22.7
- P-PLB threonin-17 [2, 7]: 8.9 and 9.5
- P-PLB threonin-17, Av [2, 8]: 9.0
- P-PLB threonin-17 [2, 9]: 8.2
- response of threonin-17 phosphorylation to CCM in presence of kinese inhibitor ([2]; HF dog tissue homogenate): reduced and delayed response
- P-PLB threonin-17 ([2]; PK Inhibitor + CCM delivered for 10 sec): 14.6 and 9.9 and 8.7
- P-PLB threonin-17 ([2]; PK Inhibitor + CCM delivered for 20 sec): 8.3 and 15.0
- P-PLB threonin-17, Av [2, 10]: 15.0
- platelet aggregation induced by collagen or ADP [3]: inhibits platelet aggregation
- apoptosis [4]: Induces apoptosis
- cell cycle arrest [5]: Arrests normal cells at the G1 checkpoint

Compound: COCCc1ccc(OCC(O)CNC(C)C)cc1 (stereo not drawn) [BB, metoprolol succinate]
- LV EDV ([6]; BB alone): prevented the increase in EDV
- LV EF ([6]; BB alone): significantly increased EF
- LV ESV ([6]; BB alone): significantly reduced ESV
- LV EDV ([6]; BB combined with CCM): prevented the increase in EDV
- LV EF ([6]; BB combined with CCM): significantly increased EF
- LV ESV ([6]; BB combined with CCM): significantly reduced ESV
- Treatment effect (Δ) LV EF, PRE to POST ([6]; BB combined with CCM therapy): 12±1%
